Data from PubChem BioAssay AID651672 (The Scripps Research Institute Molecular Screening Center, 2012).
pIC50: −log10 of the molar value. Calls of active or inactive are those of the source. The rule behind the calls is not given here.

Target: Perilipin-1 (Homo sapiens) (UniProt O60240)
Assay: inhibitors of ABHD5-PLIN1 binding, dose response, counter-screen for ABHD5-PLIN5 interaction inhibitor project, biochemical, luminescence (AID 651672);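 note: split Gaussia luciferase complementation between ABHD5 and PLIN1 fusion fragments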

Chain of Perilipin-1 (Homo sapiens) (O60240 whole entry, looked up, the tested form may be a part): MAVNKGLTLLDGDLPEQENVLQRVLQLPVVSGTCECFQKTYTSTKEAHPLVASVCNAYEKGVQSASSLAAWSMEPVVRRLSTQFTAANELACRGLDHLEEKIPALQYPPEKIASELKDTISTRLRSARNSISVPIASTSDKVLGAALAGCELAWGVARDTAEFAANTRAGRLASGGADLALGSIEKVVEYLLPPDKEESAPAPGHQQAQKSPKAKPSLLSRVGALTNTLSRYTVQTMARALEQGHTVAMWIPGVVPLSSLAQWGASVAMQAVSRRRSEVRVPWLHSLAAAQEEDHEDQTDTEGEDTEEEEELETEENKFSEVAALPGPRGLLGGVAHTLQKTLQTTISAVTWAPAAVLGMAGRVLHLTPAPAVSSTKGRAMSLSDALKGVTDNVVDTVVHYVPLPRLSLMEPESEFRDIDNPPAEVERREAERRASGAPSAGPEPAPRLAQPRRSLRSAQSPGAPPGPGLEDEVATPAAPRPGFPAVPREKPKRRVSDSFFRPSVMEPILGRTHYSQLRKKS

## CC(=O)Oc1ccc(C23c4ccccc4C2(OC(C)=O)c2cc(OC(C)=O)ccc23)cc1 (centres undefined)
  pIC50: 6.24

## O=C(NCc1ccccc1)C(c1cc2ccccc2o1)n1c(=O)c(-c2ccco2)nc2ccccc21 (centres undefined)
  pIC50: 5.64

## CCCCCNC(=O)C(c1ccc(OC)cc1)n1c(=O)c(-c2ccco2)nc2ccccc21 (centres undefined)
  pIC50: 5.85

## CC(C)(C)NC(=O)C(C1CC1)n1c(=O)c(-c2ccco2)nc2ccccc21 (centres undefined)
  pIC50: 5.38

## Cc1cccc(C)c1NC(=O)C(c1ccccc1F)n1c(=O)c(-c2ccco2)nc2ccccc21 (centres undefined)
  pIC50: 5.55

## CCCCCNC(=O)C(c1ccccc1F)n1c(=O)c(-c2ccco2)nc2ccccc21 (centres undefined)
  pIC50: 5.96

## COC(=O)c1cc(=O)n(Cc2ccco2)c(=Nc2ccc(F)cc2)s1
  pIC50: 5.50

## CN(C)CCOC1(Cc2ccc(F)cc2)CCC(C(C)(C)C)CC1 (centres undefined)
  pIC50: 5.00

## CN(C)c1ccc(Cc2cc3c(O)ccc(O)c3cc(Cc3ccc(N(C)C)cc3)c2=O)cc1
  pIC50: 5.62

## CC(C)(C)NC(=O)C(c1ccccc1)n1c(=O)c(-c2ccco2)nc2ccccc21 (centres undefined)
  pIC50: 5.69

## COc1ccc(OCc2cn(CC(=O)c3ccc(O)cc3)nn2)cc1
  pIC50: 5.42

## O=C(NC1CCCCC1)C(C1CC1)n1c(=O)c(-c2ccco2)nc2ccccc21 (centres undefined)
  pIC50: 5.51

## CCOc1cc(N)c(Cl)cc1C(=O)NCC1CN(Cc2ccc(F)cc2)CCO1 (centres undefined)
  pIC50: 5.71

## COc1ccccc1-c1cc(C(=O)NC2CCN(C)CC2)c2ccc(Cl)c(C)c2n1
  IC50: inactive

## Oc1ccc2sc(-c3ccccc3O)c(-c3ccc(OCCN4CCCCC4)cc3)c2c1
  pIC50: 5.15

## CCC1(C)N=C(c2ccc3c(c2)OCO3)CC(c2ccccc2O)N1 (centres undefined)
  pIC50: 5.98

## CC(C)(C)NC(=O)C(c1ccccc1F)n1c(=O)c(-c2ccco2)nc2ccccc21 (centres undefined)
  pIC50: 5.64

## C#CCOCCOCCOCCNc1nc(N2CCN(C(=O)CCCCCCCCCCNC(=O)[C@@H](CCSC)n3cc(CCO)nn3)CC2)nc(N2CCN(C(=O)CCCCCCCCCCNC(=O)[C@@H]([C@H](C)O)n3cc(C)nn3)CC2)n1
  IC50: inactive

## O=C(NC1CCCCC1)C(c1ccccc1F)n1c(=O)c(-c2ccco2)nc2ccccc21 (centres undefined)
  pIC50: 5.72

## CCCCCCC=C1CCC(CN2CCCC2)C1=O (centres undefined)
  pIC50: 5.86

## O=C(COc1ccccc1Cl)Nc1ccc(N2CCCC2)cc1
  IC50: > 39900 nM (inactive)

## CC(=O)Oc1c(Br)cc(N(C(C)=O)S(=O)(=O)c2ccccc2)c2ccccc12
  pIC50: 5.06

## CC(c1nc2ccccc2[nH]1)n1c(=O)c(-c2ccco2)nc2ccccc21 (centres undefined)
  pIC50: 5.47

## O=C(NC1CCCCC1)C(c1ccc(-c2ccccc2)cc1)n1c(=O)c(-c2ccco2)nc2ccccc21 (centres undefined)
  pIC50: 5.73

## C=C1C(=O)O[C@H]2C[C@H]1[C@@H](OC(C)=O)C/C(C)=C/CC/C(C)=C\CC[C@]2(C)O
  pIC50: 5.73

## O=C(NC1CCCCC1)C(c1cc2ccccc2o1)n1c(=O)c(-c2ccco2)nc2ccccc21 (centres undefined)
  pIC50: 5.89

## CCc1nnc(NC(=O)c2nc(S(=O)(=O)Cc3cccc(C)c3)ncc2Cl)s1
  pIC50: 5.48

## O=[N+]([O-])/C=C/c1cn(Cc2ccc(F)cc2)c2ccccc12
  pIC50: 5.13

## CCN(CCCc1ccccc1)CCCc1ccccc1
  pIC50: 5.65

## CCOc1cc(/C=C2\CCC/C(=C\c3cc(Cl)c(O)c(OCC)c3)C2=O)cc(Cl)c1O
  pIC50: 5.41

## O=C(Nc1ccc(Cl)cc1)/C(=C/c1cccc(O)c1)c1nc2ccccc2s1
  pIC50: 5.78

## Cc1ccc(S(=O)(=O)N2C[C@@]3(O)Cn4c(=O)ccc(=O)n4C[C@@]3(OC(=O)NCC3CCCCC3)C2)cc1
  pIC50: 5.21

## O=C(NCc1ccccc1)C(c1cccc2ccccc12)n1c(=O)c(-c2ccco2)nc2ccccc21 (centres undefined)
  pIC50: 5.69

## CC(C)(C)NC(=O)C(c1cc2ccccc2o1)n1c(=O)c(-c2ccco2)nc2ccccc21 (centres undefined)
  pIC50: 5.71

## CC(=O)Nc1ccc(OCc2cn(CC(=O)c3ccc(O)cc3)nn2)cc1
  pIC50: 5.61

## Cc1ccc(C(=O)c2coc3c2C(=O)C(=O)c2ccccc2-3)cc1
  pIC50: 5.41

## COc1ccccc1/C=C/C(=O)c1ccccc1
  pIC50: 5.22

## Cc1ccc2c(CC(=O)N3CCN(S(=O)(=O)c4ccc5c(c4)OCCO5)CC3)coc2c1
  pIC50: 5.29

## O=C1NC(=O)N(Cc2ccc(F)cc2)C(=O)/C1=C\C=C\c1ccco1
  pIC50: 5.77

## Cc1nnc(NC(=O)c2nc(S(=O)(=O)Cc3ccccc3C)ncc2Cl)s1
  pIC50: 5.41

## Cc1cccc(C)c1NC(=O)C(c1ccnc2ccccc12)n1c(=O)c(-c2ccco2)nc2ccccc21 (centres undefined)
  pIC50: 5.48

## CC(O)CC(=O)OC[C@]12CC[C@H]3[C@@](C)(CC[C@H]4C(C)(C)CCC[C@]34C)[C@@H]1CC(C1=CC(=O)OC1O)O2 (some centres undefined)
  pIC50: 5.90

## CCOC(=O)C1CCCN(C(=O)c2cc(Nc3ccc(OC)cc3)nc3ccccc23)C1 (centres undefined)
  IC50: inactive

## CCCCCNC(=O)C(C1CC1)n1c(=O)c(-c2ccco2)nc2ccccc21 (centres undefined)
  pIC50: 5.18

## Cc1ccc(O)c(C(=O)/C=C/c2ccc3c(c2)OCCCO3)c1
  pIC50: 5.33

## Cc1cc(C)c(NC(=O)CN2CCN3CCCC3C2)c(C)c1 (centres undefined)
  IC50: inactive

## CCCCCNC(=O)C(c1cccc2ccccc12)n1c(=O)c(-c2ccco2)nc2ccccc21 (centres undefined)
  pIC50: 5.70

## O=C(NC1CCCCC1)C(c1ccnc2ccccc12)n1c(=O)c(-c2ccco2)nc2ccccc21 (centres undefined)
  pIC50: 5.65

## O=C(NC1CCCCC1)C(c1ccc(C(F)(F)F)cc1)n1c(=O)c(-c2ccco2)nc2ccccc21 (centres undefined)
  pIC50: 5.78

## O=S(=O)(NC1=NCCCCC1)c1ccc2sc(NS(=O)(=O)c3ccc4ccccc4c3)nc2c1
  IC50: inactive

## CN(C)CCCN(C(=O)CCc1ccccc1)c1nc2ccc(Cl)cc2s1
  pIC50: 5.16

## CC(=O)Cc1cc(O)c2ccccc2c1OC(=O)c1ccccc1
  pIC50: 5.58

## CC1=CC(C)(C)Nc2ccc(OC(=O)CN3C(=O)C4CCCCC4C3=O)cc21 (centres undefined)
  pIC50: 5.64

## CC1=CC(C)(C)Nc2ccc(OC(=O)CN3C(=O)c4cccc5cccc(c45)C3=O)cc21
  pIC50: 5.19

## CN(C)CCN(Cc1ccco1)c1ccccn1
  IC50: inactive

## C#CCN(C[C@@H]1[C@@H](OC(=O)Nc2cccs2)[C@@H](OC(=O)Nc2cccs2)Cn2c(=O)ccc(=O)n21)S(=O)(=O)c1ccc(C)cc1
  pIC50: 5.63

## CCN(CC)CCC(C)OC(c1ccccc1)c1ccccc1 (centres undefined)
  pIC50: 5.58

## CCSc1nnc(NC(=O)c2nc(S(=O)(=O)Cc3ccc(F)cc3)ncc2Cl)s1
  pIC50: 5.57

## O=C(NC1CCCCC1)C(c1cccc2ccccc12)n1c(=O)c(-c2ccco2)nc2ccccc21 (centres undefined)
  pIC50: 5.91

## COc1ccc(NC(=O)C(c2ccnc3ccccc23)n2c(=O)c(-c3ccco3)nc3ccccc32)cc1 (centres undefined)
  pIC50: 5.32

## CCCC(=O)NC(c1cccc([N+](=O)[O-])c1)c1ccc2cccnc2c1O (centres undefined)
  IC50: > 39800 nM (inactive)

## N#Cc1ccccc1OCc1cn(CC(=O)c2ccc(O)cc2)nn1
  pIC50: 5.38

## CCCCC(=O)NC(c1cccc([N+](=O)[O-])c1)c1ccc2cccnc2c1O (centres undefined)
  IC50: inactive

## COc1ccc(NC(=S)N(CCCN2CCCC2)Cc2cccn2Cc2ccc(Cl)cc2)cc1Cl
  IC50: inactive

## C#CCN(C[C@@H]1[C@@H](OC(=O)NC2CCCC2)[C@@H](OC(=O)NC2CCCC2)Cn2c(=O)ccc(=O)n21)S(=O)(=O)c1ccc(C)cc1
  pIC50: 5.32

## O=C(/C(=C/c1ccccc1)n1cncn1)c1ccc(Cl)cc1Cl
  pIC50: 5.64

## O=C(/C=C/c1ccc(NC(=O)c2ccccc2-c2ccccc2C(=O)O)cc1)c1ccccc1
  pIC50: 5.10

## O=C(/C=C/c1ccc2c(c1)OCCCO2)c1ccccc1O
  pIC50: 5.26

## CCCCNC(=O)Nc1ccc2c(c1)N(C)C(=O)c1ccccc1S2
  pIC50: 5.50

## Cc1cc(C)c(NC(=O)C[N+](C)(C)CC(O)COc2cccc3ccccc23)c(C)c1 (centres undefined)
  pIC50: 5.10

## Cc1cccc(C)c1NC(=O)C(c1ccc(-c2ccccc2)cc1)n1c(=O)c(-c2ccco2)nc2ccccc21 (centres undefined)
  pIC50: 5.83

## Cc1ccc2sc(N(CCCN(C)C)C(=O)CN3C(=O)c4ccccc4C3=O)nc2c1C
  IC50: inactive

## O=C1NC(=O)N(c2ccccc2F)C(=O)/C1=C/c1ccc(Oc2ccc([N+](=O)[O-])cn2)cc1
  pIC50: 5.56

## Cc1cccc(C)c1NC(=O)C(c1ccncc1)n1c(=O)c(-c2ccco2)nc2ccccc21 (centres undefined)
  pIC50: 5.15

## COc1cccc2sc(N(CCCN(C)C)C(=O)COc3ccc(Cl)cc3)nc12
  IC50: inactive

## O=c1c(-c2ccco2)nc2ccccc2n1C(CCc1ccccc1)c1nc2ccccc2[nH]1 (centres undefined)
  pIC50: 5.63

## CC(C)c1nnc(NC(=O)c2nc(S(=O)(=O)Cc3ccc(F)cc3)ncc2Cl)s1
  pIC50: 5.55

## Cc1cc(C)c(C(CC(=O)c2cccs2)C(C#N)C#N)c(C)c1 (centres undefined)
  pIC50: 5.17

## COc1ccc(C(C(=O)Nc2ccc3c(c2)OCCO3)n2c(=O)c(-c3ccco3)nc3ccccc32)cc1 (centres undefined)
  pIC50: 5.27

## Cc1ccc(O)c(C(=O)C=Cc2ccccc2)c1
  pIC50: 5.61

## Cc1ccc(C)c(/C=C/C(=O)c2ccccc(=O)c2O)c1
  pIC50: 5.25

## O=C1NC(=O)N(Cc2ccccc2)C(=O)/C1=C\C=C\c1ccco1
  pIC50: 5.74

## CC(=O)Oc1c(Cl)c(N2CCOCC2)c(OC(C)=O)c2ccccc12
  pIC50: 5.35

## O=C1CC(c2ccc(Cl)cc2)Oc2ccc(Cl)cc21 (centres undefined)
  pIC50: 5.53

## c1ccc(CCC2=NCCn3cccc32)cc1
  IC50: inactive

## CCCNC(=O)Nc1ccc2c(c1)N(C)C(=O)c1ccccc1S2
  pIC50: 5.30

## COc1ccc(NC(=O)C(c2ccc(C#N)cc2)n2c(=O)c(-c3ccco3)nc3ccccc32)cc1 (centres undefined)
  IC50: inactive

## CC1=CC(C)(C)Nc2ccc(OC(=O)c3cccnc3)cc21
  pIC50: 5.71

## COc1cc2c(cc1OC)C(C)N(CCc1ccc(Cl)cc1)CC2 (centres undefined)
  IC50: inactive

## CCOC(=O)c1c(NC(C)=O)sc2c1CCC(C=O)=C2Sc1ccccc1
  pIC50: 5.51

## C#CCN(C[C@@H]1[C@@H](OC(=O)NCC2CCCCC2)[C@@H](OC(=O)NCC2CCCCC2)Cn2c(=O)ccc(=O)n21)S(=O)(=O)c1ccc(C)cc1
  pIC50: 5.32

## CC(C)(C)NC(=O)C(c1cccc2ccccc12)n1c(=O)c(-c2ccco2)nc2ccccc21 (centres undefined)
  pIC50: 5.69

## O=C(/C=C/Sc1ccccc1)c1ccc(Cl)cc1
  pIC50: 5.42

## CN1CCC(=C2c3ccccc3CC(=O)c3sccc32)CC1
  IC50: inactive

## Cc1cc(C)c2nc(NNC(=O)c3ccc(S(=O)(=O)N4CCCC(C)C4)cc3)sc2c1 (centres undefined)
  pIC50: 5.52

## CSC(=Nc1ccccc1)N=C(SCc1ccccc1)N(C)C
  pIC50: 5.93

## CCCCCNC(=O)C(c1ccc(C#N)cc1)n1c(=O)c(-c2ccco2)nc2ccccc21 (centres undefined)
  pIC50: 5.53

## O=C(NCc1ccccc1)C(c1ccc(-c2ccccc2)cc1)n1c(=O)c(-c2ccco2)nc2ccccc21 (centres undefined)
  pIC50: 5.46

## O=C(NC1CCCCC1)C(c1ccccc1)n1c(=O)c(-c2ccco2)nc2ccccc21 (centres undefined)
  pIC50: 6.02
